Common to all, as to format: nucleic-acid assay
For assay [1], the system named is Nucleic Acid. Kind of assay: Induction of DNA cleavage activity in Escherichia coli pBR322 assessed as supercoiled circular form after 10 mins by gel electrophoresis in presence of UV light. Details: concentration or dose not given beside the values.
Assay [2] has as its system Nucleic Acid. Kind of assay: Induction of DNA cleavage activity in Escherichia coli pBR322 assessed as relaxed circular form after 10 mins by gel electrophoresis in presence of UV light. Details: concentration or dose not given beside the values.
Assay [3] relates to Nucleic Acid. Put plainly: Induction of DNA cleavage activity in Escherichia coli pBR322 assessed as relaxed circular form after 10 mins by gel electrophoresis in presence of bubbling with argon gas. Details: scale not given: the % may be the effect or the level left.
Assay [4] deals with Nucleic Acid. Put plainly: Induction of DNA cleavage activity in Escherichia coli pBR322 assessed as relaxed circular form after 10 mins by gel electrophoresis in absence of UV light. Details: scale not given: the % may be the effect or the level left.
Assay [5] has as its system Nucleic Acid. Put plainly: Induction of DNA cleavage activity in Escherichia coli pBR322 assessed as supercoiled circular form after 10 mins by gel electrophoresis in presence of ascorbic acid.
Assay [6] concerns Nucleic Acid. Put plainly: Induction of DNA cleavage activity in Escherichia coli pBR322 assessed as supercoiled circular form after 10 mins by gel electrophoresis in absence of UV light.
The subject of assay [7] is Nucleic Acid. Put plainly: Induction of DNA cleavage activity in Escherichia coli pBR322 assessed as supercoiled circular form after 10 mins by gel electrophoresis in presence of bubbling with argon gas.
The subject of assay [8] is Nucleic Acid. Kind of assay: Ratio of relaxed circular form of Escherichia coli pBR322 to supercoiled circular form of Escherichia coli pBR322 in absence of UV light.
The test system of assay [9] is Nucleic Acid. Kind of assay: Induction of DNA cleavage activity in Escherichia coli pBR322 assessed as relaxed circular form after 10 mins by gel electrophoresis in presence of 0.1 M NaN3 solution. Details: scale not given: the % may be the effect or the level left.
The subject of assay [10] is Nucleic Acid. Put plainly: Induction of DNA cleavage activity in Escherichia coli pBR322 assessed as relaxed circular form after 10 mins by gel electrophoresis in presence of ascorbic acid. Details: scale not given: the % may be the effect or the level left.
The test system of assay [11] is Nucleic Acid. Put plainly: Induction of DNA cleavage activity in Escherichia coli pBR322 assessed as supercoiled circular form after 10 mins by gel electrophoresis in presence of 0.1 M NaN3 solution.
Assay [12] relates to Nucleic Acid. Put plainly: Ratio of relaxed circular form of Escherichia coli pBR322 to supercoiled circular form of Escherichia coli pBR322 in presence of bubbling with argon gas.
The subject of assay [13] is Nucleic Acid. Kind of assay: Ratio of relaxed circular form of Escherichia coli pBR322 to supercoiled circular form of Escherichia coli pBR322 in presence of ascorbic acid.
Assay [14] has as its system Nucleic Acid. Put plainly: Ratio of relaxed circular form of Escherichia coli pBR322 to supercoiled circular form of Escherichia coli pBR322 in presence of 0.1 M NaN3 solution.

`O=C(ON(C(=O)c1ccccc1)c1ccc(C(=O)c2ccccc2)cc1)c1ccc(F)cc1`: the Activity was found to be 37.1% with Nucleic Acid [1] and 62.9% with Nucleic Acid [2].
For `O=C(ON(C(=O)c1ccccc1)c1ccc(C(=O)c2ccccc2)cc1)c1ccc(Cl)cc1`, in that order: 65% and 35%.
Taken in the same sequence, the figures for `CC(=O)N(OC(=O)c1ccccc1)c1ccc(C(=O)c2ccccc2)cc1` were 7.83% and 92.2%.
Taken in the same sequence, the figures for `O=C(ON(C(=O)c1ccc([N+](=O)[O-])cc1)c1ccc(C(=O)c2ccccc2)cc1)c1ccccc1` were 63.7% and 36.3%.
Turning to `COc1ccc(C(=O)N(OC(=O)c2ccccc2)c2ccc(C(=O)c3ccccc3)cc2)cc1OC`, the results for the Activity with Nucleic Acid [1] and with Nucleic Acid [2] were 22.9% and 77.1%, respectively.
For `COc1ccc(C(=O)ON(C(=O)c2ccccc2)c2ccc(C(=O)c3ccccc3)cc2)cc1OC`, in that order: 11.2% and 88.8%.
Taken in the same sequence, the figures for `O=C(ON(C(=O)c1ccc(F)cc1)c1ccc(C(=O)c2ccccc2)cc1)c1ccccc1` were 59.2% and 40.8%.
As for `CC(=O)ON(C(=O)c1ccccc1)c1ccc(C(=O)c2ccccc2)cc1`, the Activity in the assay on Nucleic Acid [3] was 73%; in the assay with Nucleic Acid [4], 16.3%; with Nucleic Acid [5], 76.6%; in the assay with Nucleic Acid [6], 83.7%; in the assay on Nucleic Acid [7], 26.1%; in the assay on Nucleic Acid [1] it was 25.6%. The Activity in the assay on Nucleic Acid [9] turned out to be 76%; in the assay on Nucleic Acid [2], 73.9%; in the assay with Nucleic Acid [10] it was 23.4%; with Nucleic Acid [11], 24.1%. The Ratio in the assay with Nucleic Acid [8] was found to be 0.19; in the assay with Nucleic Acid [12], 2.79; with Nucleic Acid [13] it was 0.31; with Nucleic Acid [14], 3.18.
`O=C(ON(C(=O)c1ccccc1)c1ccc(C(=O)c2ccccc2)cc1)c1ccc([N+](=O)[O-])cc1`: the Activity in the assay with Nucleic Acid [1] came out at 56.6%; in the assay with Nucleic Acid [2] it was 43.4%.
For `O=C(ON(C(=O)c1ccccc1)c1ccc(C(=O)c2ccccc2)cc1)c1ccccc1`, in that order: 13.2% and 86.8%.

(Values after ChEMBL document CHEMBL1221382, “N,O-diacyl-4-benzoyl-N-phenylhydroxylamines as photoinduced DNA cleaving agents” (Bioorg Med Chem Lett, 2010).)
